{
  "source": "patent US20050009922A1",
  "about": "“Stable aqueous antimicrobial suspension” (priority 2001, published 2005)",
  "origin": "cited, not measured here",
  "conditions": "in water, 25° C., FIG. 1",
  "data": [
    {"smiles": "N#CC(Br)(Br)C(N)=O", "note": "[DBNPA, 2,2 dibromo 3-nitrilopropionamide]", "values": [
      {"measurement": "pH of lowest rate of hydrolysis", "value": "< 4", "unit": "pH"}
    ]}
  ]
}
